The text below walks through data of PubChem BioAssay (NCI).

Some test systems named below: ACHN renal; BT-549 breast; CAKI-1 renal; DU-145 prostate; HL-60(TB) leukemia; NCI-H23 lung; OVCAR-3 ovarian; OVCAR-5 ovarian; OVCAR-8 ovarian; RXF 393 renal; SF-268 CNS; SF-295 CNS; SK-MEL-28 melanoma; SK-MEL-5 melanoma; SK-OV-3 ovarian; SNB-19 CNS; SNB-75 CNS; TK-10 renal; K-562 leukemia.
Common to all, as to experiment: DTP human tumour cell line panel, 48 h

SMILES strings stand for the structures.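 Briefly, cells in 96-well plates were exposed to five compound concentrations for 48 h, and endpoints were estimated by linear interpolation. TGI: total growth inhibition.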

As a reminder, the TGI is the concentration at which net growth stops. Read a high TGI as lower sensitivity of the cells. Turning to `COc1ccc(P2(=S)SP(=S)(c3ccc(Cl)cc3)S2)cc1` (stereo unspecified), the TGI in the test on ACHN renal, in the test on BT-549 breast, in the test with CAKI-1 renal, in the test on DU-145 prostate, with HL-60(TB) leukemia and in the test with NCI-H23 lung was more than 100 µM in each case. The TGI in the test with OVCAR-3 ovarian, in the test on OVCAR-5 ovarian, with OVCAR-8 ovarian, in the test on RXF 393 renal, in the test with SF-268 CNS and in the test with SF-295 CNS was more than 100 µM each time. The TGI in the test on SK-MEL-28 melanoma, with SK-MEL-5 melanoma, in the test on SK-OV-3 ovarian, with SNB-19 CNS, with SNB-75 CNS and with TK-10 renal was more than 100 µM throughout.
For the compound `CCOC(=O)CSc1nnc(CSc2nc(-c3ccccc3)c(-c3ccccc3)[nH]2)n1-c1ccccc1`, the concentration for total growth inhibition (TGI) is 35.5 µM with ACHN renal; more than 100 µM with BT-549 breast; 30.1 µM in the test with DU-145 prostate; 98.8 µM in the test on HL-60(TB) leukemia; more than 100 µM with K-562 leukemia; more than 100 µM with NCI-H23 lung. The total growth inhibition concentration (TGI) with OVCAR-3 ovarian was more than 100 µM; in the test with OVCAR-5 ovarian, more than 100 µM; in the test with OVCAR-8 ovarian, 35.3 µM; in the test with RXF 393 renal, 39.5 µM; in the test on SF-268 CNS, more than 81.3 µM; in the test on SF-295 CNS it was more than 100 µM. For the same compound, the total growth inhibition concentration (TGI) in the test with SK-MEL-28 melanoma was more than 100 µM; in the test with SK-MEL-5 melanoma it was more than 100 µM; in the test with SK-OV-3 ovarian it was 43.8 µM; in the test on SNB-19 CNS it was more than 100 µM; in the test on SNB-75 CNS it was more than 100 µM; in the test with TK-10 renal, 31.9 µM.
As for `CC1(C)OCC(C2OC(OC(=O)c3ccc([N+](=O)[O-])cc3)C3OC(C)(C)OC23)O1` (stereo unspecified), the concentration for total growth inhibition (TGI) with ACHN renal, with BT-549 breast, in the test on CAKI-1 renal, in the test on DU-145 prostate, in the test on K-562 leukemia and in the test with NCI-H23 lung was more than 100 µM each time. Besides, the total growth inhibition concentration (TGI) in the test with OVCAR-3 ovarian, in the test on OVCAR-5 ovarian, in the test with OVCAR-8 ovarian, in the test on RXF 393 renal, with SF-268 CNS and in the test with SF-295 CNS was more than 100 µM throughout. Also, the TGI was more than 100 µM in the test on SK-MEL-28 melanoma; more than 100 µM with SK-MEL-5 melanoma; more than 100 µM in the test on SK-OV-3 ovarian; more than 100 µM in the test with SNB-19 CNS; 54.3 µM with SNB-75 CNS; more than 100 µM in the test with TK-10 renal.
With `CC(=O)Oc1c2c(c(CC=C(C)C)c3c1C(=O)C1=C[C@@H]4CC5C(C)(C)OC(C/C=C(/C)C(=O)O)(C4=O)[C@@]15O3)OC(C)(CCC=C(C)C)C=C2` (stereo partly specified), the TGI stood at 0.279 µM with ACHN renal; 0.461 µM with BT-549 breast; 0.409 µM with CAKI-1 renal; 0.838 µM in the test on DU-145 prostate; 10.6 µM with HL-60(TB) leukemia; 1.01 µM in the test with NCI-H23 lung. Besides, the TGI with OVCAR-3 ovarian is 0.922 µM; in the test with OVCAR-5 ovarian, 1.16 µM; in the test with OVCAR-8 ovarian, 0.747 µM; with RXF 393 renal, 0.336 µM; with SF-268 CNS, 1.56 µM; in the test on SF-295 CNS, 1.67 µM. Further, the concentration for total growth inhibition (TGI) in the test with SK-MEL-28 melanoma is 0.378 µM; with SK-MEL-5 melanoma it was 0.737 µM; with SK-OV-3 ovarian, 1.91 µM; with SNB-19 CNS, 1.38 µM; in the test with SNB-75 CNS it was 1.39 µM; in the test on TK-10 renal, 0.585 µM.
As to `Cc1c(/C=N/NC(=S)Nc2ccccc2)c(=O)n(-c2ccccc2)n1C`, the total growth inhibition concentration (TGI) with ACHN renal, with BT-549 breast, in the test with CAKI-1 renal, with DU-145 prostate, in the test with HL-60(TB) leukemia and with K-562 leukemia was more than 100 µM in each case. Further, the concentration for total growth inhibition (TGI) in the test with NCI-H23 lung, with OVCAR-8 ovarian, in the test with RXF 393 renal, in the test with SF-268 CNS, in the test with SF-295 CNS and in the test with SK-MEL-28 melanoma was more than 100 µM throughout. Moreover, the TGI in the test on SK-MEL-5 melanoma, in the test with SK-OV-3 ovarian, in the test with SNB-19 CNS, with SNB-75 CNS and with TK-10 renal was more than 100 µM throughout.
In the case of `CCOC(=O)C1=c2[nH]c3cccc4cccc(c43)n2C(=O)CC1c1ccccc1` (stereo unspecified), the total growth inhibition concentration (TGI) in the test on ACHN renal, in the test with BT-549 breast, in the test on CAKI-1 renal, in the test with DU-145 prostate, with HL-60(TB) leukemia and in the test on K-562 leukemia was more than 100 µM in each case. For the same compound, the TGI in the test with NCI-H23 lung, in the test with OVCAR-5 ovarian, in the test with OVCAR-8 ovarian, in the test with RXF 393 renal, in the test on SF-268 CNS and in the test with SF-295 CNS was more than 100 µM each time. For the same compound, the total growth inhibition concentration (TGI) with SK-MEL-28 melanoma, in the test with SK-MEL-5 melanoma, in the test with SK-OV-3 ovarian, with SNB-19 CNS, with SNB-75 CNS and in the test with TK-10 renal was more than 100 µM in each case.
Take `COc1cc(C(=O)C2C(=O)c3ccccc3C2C2(O)c3ccccc3CC2C(O)c2cc(OC)c(OC)c(OC)c2)cc(OC)c1OC` (stereo unspecified): the TGI with ACHN renal, in the test with BT-549 breast, in the test on CAKI-1 renal, with DU-145 prostate, in the test on K-562 leukemia and with NCI-H23 lung was more than 100 µM each time. In addition, the TGI in the test with OVCAR-3 ovarian, in the test with OVCAR-5 ovarian, in the test with OVCAR-8 ovarian, with RXF 393 renal, with SF-268 CNS and in the test with SF-295 CNS was more than 100 µM throughout. The total growth inhibition concentration (TGI) in the test on SK-MEL-28 melanoma is more than 100 µM; in the test on SK-MEL-5 melanoma it was more than 100 µM; in the test on SK-OV-3 ovarian it was more than 100 µM; in the test with SNB-19 CNS it was more than 100 µM; in the test with SNB-75 CNS, 94.3 µM; with TK-10 renal, more than 100 µM.
`COc1ccc(-c2nnc3n(Cc4ccccc4)c4ccccc4n3c2=O)cc1`: the TGI in the test on ACHN renal is 99.5 µM; in the test on BT-549 breast, more than 100 µM; with CAKI-1 renal, 45 µM; in the test with DU-145 prostate, more than 100 µM; in the test on HL-60(TB) leukemia, more than 100 µM; in the test with NCI-H23 lung, more than 100 µM. For the same compound, the TGI is more than 100 µM in the test on OVCAR-5 ovarian; more than 100 µM with OVCAR-8 ovarian; 61.8 µM with RXF 393 renal; more than 100 µM in the test on SF-268 CNS; 41.8 µM in the test with SF-295 CNS; more than 100 µM in the test with SK-MEL-28 melanoma. The TGI is more than 100 µM in the test with SK-MEL-5 melanoma, 80 µM in the test on SNB-19 CNS, 41.8 µM in the test with SNB-75 CNS and 58.1 µM in the test with TK-10 renal.
